{"source": "patent US20150011463A1", "about": "“AGENT FOR PREVENTING OR AM[…] ENDOTHELIAL MALFUNCTION” (KYOWA HAKKO BIO CO., LTD., priority 2012, published 2015)", "test_system": "normal human umbilical vein endothelial cell (HUVEC)", "assay": "NO production (nitrite in culture supernatant by HPLC) in HUVEC", "format": "cell-based", "conditions": "citrulline final concentration 0.3 mM, 24-hour culture, vs control (PBS)", "method": "The cells were cultured in at 37° C., in 5% CO2 incubator, and used for experiment after 4 to 6 passages. Citrulline and reduced glutathione were obtained from Kyowa Hakko Bio.\nA cell suspension (0.45 mL) with the adjusted initial cell concentration of 5×10^5 cells/mL was inoculated in a 24-well plate (IWAKI). After 40-hour culture, the media were replaced with those containing citrulline (final concentration 0.3 mM: citrulline group), reduced glutathione (final concentration 1 mM: high-dose glutathione group), and a citrulline and reduced glutathione mixture (citrulline final concentration 0.3 mM; glutathione final concentration 0.3 mM: citrulline+low-dose glutathione group). Media with the sole addition of solvent (PBS) were used as a control group. After 24-hour culture, the cell culture (100 μL) was centrifuged at 12,000 rpm for 10 minutes, and the concentration of nitrite (NO2), which is the stable NO metabolite, in culture supernatant was quantified by HPLC (ENO-20, EICOM).", "data": [{"smiles": "NC(=O)NCCC[C@H](N)C(=O)O", "note": "[citrulline]", "values": [{"measurement": "effect on NO production (concentration of nitrite (NO2) in culture supernatant)", "value": "no effect"}]}]}
